Measurements: patent publication US6638981B2, “Topical compositions and methods for treating pain” (EpiCept Corporation, priority 2001, dated 2003)
Where a name gives a salt, the structure may show the parent alone.

Assay: Chemical and physical stability studies under ICH storage conditions (extraction, HPLC, appearance)
Type: physicochemical
Conditions: in Composition A; for calculated initial percentage of actives: before storage, HPLC; for calc. percentage of actives after storage for one month, 25° C. / calc. percentage of actives after storage for two months, 25° C.: 25° C./60% RH; for calc. percentage of actives after storage for one month, 30° C. / calc. percentage of actives after storage for two months, 30° C.: 30° C./60% RH; for calc. percentage of actives after storage for one month, 40° C. / calc. percentage of actives after storage for two months, 40° C.: 40° C./75% RH

Structure (SMILES)	calculated initial percentage of actives [%]	calc. percentage of actives after storage for one month, 25° C. [%]	calc. percentage of actives after storage for two months, 25° C. [%]	calc. percentage of actives after storage for one month, 30° C. [%]	calc. percentage of actives after storage for two months, 30° C. [%]	calc. percentage of actives after storage for one month, 40° C. [%]	calc. percentage of actives after storage for two months, 40° C. [%]
CN(C)CCC=C1c2ccccc2CCc2ccccc21 [Amitriptyline Hydrochloride, Amitriptyline hydrochloride]	102.5	103	101	102	102	103	102
CCCOC(=O)c1ccc(O)cc1 [Propylparaben]	101.8	102	102	102	103	102	103
COC(=O)c1ccc(O)cc1 [Methylparaben]	104.4	103	101	102	102	102	102
CNC1(c2ccccc2Cl)CCCCC1=O (stereo not shown) [Ketamine Hydrochloride, Ketamine hydrochloride]	100.4	103	100	102	100	103	102
